Laboratory results published in patent US4746349A, “Method and compositions for suppressing the nitrification of ammonium in plant growth medium” (American Cyanamid Company, priority 1986, dated 1988).
Where a name gives a salt, the structure may show the parent alone.

Assays:
[1] = tested on: Nitrosomonas spp.; test: Nitrification of ammonium in soil incubated at 25° C. (ammonium recovery, nitrate accumulation); details: soil 25° C.; for Concentration of nitrate nitrogen / Recovery of Ammonium Nitrogen: 200 ppm N
Description: In these evaluations, one hundred grams (100 g) of oven dry, silt loam field soil with low residual nitrogen is added to a 6×12 cm screw-capped glass jar for each sampling date to provide an optimum environment for nitrification.
Two replicates of each treatment-sampling date are established. The soil is adjusted to 50% water saturation with an aqueous solution of ammonium sulfate at 200 ppm N and the chemical to be tested as a nitrification inhibitor at rates of from 0.10 to 0.50 ppm.
Incubation is at either 25° C. or 38° C. for 0, 1, 2, 4, 7, 9, 12, 16 or 20 weeks. Inorganic N is extracted by adding 2M KCl (10:1 v/w) and shaking for one hour, allowing settling for fifteen minutes. A 10 ml aliquot from the supernatant is assayed for ammonium, nitrite and nitrate by standard steam distillation methods (AOAC, pp. 653-655). Nitrapyrin (0.5 ppm) is used as a nitrification inhibitor for comparison. Benzyl alcohol, acetone, and a non-N amended soil are run as controls and as a check on mineralization.
Nitrification: Ammonium recovery and nitrate accumulation are indicative of nitrification, and data obtained with test compounds are reported in Tables I and II.

[2] = tested on: Nitrobacter spp.; test: Nitrite nitrogen in ammonium amended soil incubated at 25° C.; details: soil 25° C., 200 ppm N
Description: Determination of nitrite nitrogen and nitrate nitrogen in soil prepared in Example 1 above, which is amended with 200 ppm of nitrogen as aqueous ammonium sulfate, […], is determined using the nitrite and nitrate analysis of the American Organization of Analytical Chemists (AOAC pp. 653-655).

## CC[C@@H](C(=O)[C@@H](C)[C@@H](O)[C@H](C)CCc1ccc(C)c(O)c1C(=O)O)[C@H]1O[C@](CC)([C@H]2CC[C@](O)(CC)[C@H](C)O2)C[C@@H]1C [Lasalocid sodium salt, Lasalocid]
[1]; 0.10 ppm, week 0
  Concentration of nitrate nitrogen: 19 PPM
  Recovery of Ammonium Nitrogen: 194 PPM
[1]; 0.10 ppm, week 1
  Concentration of nitrate nitrogen: 21 PPM
  Recovery of Ammonium Nitrogen: 177 PPM
[1]; 0.10 ppm, week 2
  Concentration of nitrate nitrogen: 41 PPM
  Recovery of Ammonium Nitrogen: 143 PPM
[1]; 0.10 ppm, week 4
  Concentration of nitrate nitrogen: 90 PPM
  Recovery of Ammonium Nitrogen: 109 PPM
[1]; 0.10 ppm, week 7
  Concentration of nitrate nitrogen: 197 PPM
  Recovery of Ammonium Nitrogen: 7 PPM
[1]; 0.10 ppm, week 9
  Concentration of nitrate nitrogen: 219 PPM
  Recovery of Ammonium Nitrogen: 0 PPM
[1]; 0.10 ppm, week 12
  Concentration of nitrate nitrogen: 220 PPM
  Recovery of Ammonium Nitrogen: 8 PPM
[1]; 0.10 ppm, week 16
  Concentration of nitrate nitrogen: 223 PPM
  Recovery of Ammonium Nitrogen: 3 PPM
[1]; 0.1 to 0.5 ppm
  Specific inhibition of nitrification through activity against Nitrosomonas spp., in words: appear to specifically inhibit nitrification through activity against Nitrosomonas spp.
[1]; 0.25 ppm, week 0
  Concentration of nitrate nitrogen: 18 PPM
  Recovery of Ammonium Nitrogen: 194 PPM
[1]; 0.25 ppm, week 1
  Concentration of nitrate nitrogen: 21 PPM
  Recovery of Ammonium Nitrogen: 184 PPM
[1]; 0.25 ppm, week 2
  Concentration of nitrate nitrogen: 18 PPM
  Recovery of Ammonium Nitrogen: 186 PPM
[1]; 0.25 ppm, week 4
  Concentration of nitrate nitrogen: 28 PPM
  Recovery of Ammonium Nitrogen: 197 PPM
[1]; 0.25 ppm, week 7
  Concentration of nitrate nitrogen: 26 PPM
  Recovery of Ammonium Nitrogen: 194 PPM
[1]; 0.25 ppm, week 9
  Concentration of nitrate nitrogen: 68 PPM
  Recovery of Ammonium Nitrogen: 147 PPM
[1]; 0.25 ppm, week 12
  Concentration of nitrate nitrogen: 46 PPM
  Recovery of Ammonium Nitrogen: 180 PPM
[1]; 0.25 ppm, week 16
  Concentration of nitrate nitrogen: 158 PPM
  Recovery of Ammonium Nitrogen: 78 PPM
[1]; 0.25 ppm, week 20
  Concentration of nitrate nitrogen: 154 PPM
  Recovery of Ammonium Nitrogen: 44 PPM
[1]; 0.50 ppm, week 0
  Concentration of nitrate nitrogen: 18 PPM
  Recovery of Ammonium Nitrogen: 195 PPM
[1]; 0.50 ppm, week 1
  Concentration of nitrate nitrogen: 18 PPM
  Recovery of Ammonium Nitrogen: 169 PPM
[1]; 0.50 ppm, week 2
  Concentration of nitrate nitrogen: 14 PPM
  Recovery of Ammonium Nitrogen: 168 PPM
[1]; 0.50 ppm, week 4
  Concentration of nitrate nitrogen: 18 PPM
  Recovery of Ammonium Nitrogen: 173 PPM
[1]; 0.50 ppm, week 7
  Concentration of nitrate nitrogen: 18 PPM
  Recovery of Ammonium Nitrogen: 199 PPM
[1]; 0.50 ppm, week 9
  Concentration of nitrate nitrogen: 17 PPM
  Recovery of Ammonium Nitrogen: 202 PPM
[1]; 0.50 ppm, week 12
  Concentration of nitrate nitrogen: 20 PPM
  Recovery of Ammonium Nitrogen: 215 PPM
[1]; 0.50 ppm, week 16
  Concentration of nitrate nitrogen: 52 PPM
  Recovery of Ammonium Nitrogen: 175 PPM
[1]; 0.50 ppm, week 20
  Concentration of nitrate nitrogen: 26 PPM
  Recovery of Ammonium Nitrogen: 135 PPM
[2]; 0.10 ppm, week 0
  Concentration of nitrite nitrogen: 8 ppm
[2]; 0.10 ppm, week 1
  Concentration of nitrite nitrogen: 2 ppm
[2]; 0.10 ppm, week 2
  Concentration of nitrite nitrogen: 1 ppm
[2]; 0.10 ppm, week 4
  Concentration of nitrite nitrogen: 15 ppm
[2]; 0.10 ppm, week 7
  Concentration of nitrite nitrogen: 12 ppm
[2]; 0.10 ppm, week 9
  Concentration of nitrite nitrogen: 10 ppm
[2]; 0.10 ppm, week 12
  Concentration of nitrite nitrogen: 5 ppm
[2]; 0.10 ppm, week 16
  Concentration of nitrite nitrogen: 6 ppm
[2]; 0.10 ppm, week 20
  Concentration of nitrite nitrogen: 11 ppm
[2]; 0.25 ppm, week 0
  Concentration of nitrite nitrogen: 5 ppm
[2]; 0.25 ppm, week 1
  Concentration of nitrite nitrogen: 0 ppm
[2]; 0.25 ppm, week 2
  Concentration of nitrite nitrogen: 3 ppm
[2]; 0.25 ppm, week 4
  Concentration of nitrite nitrogen: 2 ppm
[2]; 0.25 ppm, week 7
  Concentration of nitrite nitrogen: 0 ppm
[2]; 0.25 ppm, week 9
  Concentration of nitrite nitrogen: 3 ppm
[2]; 0.25 ppm, week 12
  Concentration of nitrite nitrogen: 8 ppm
[2]; 0.25 ppm, week 16
  Concentration of nitrite nitrogen: -1 ppm
[2]; 0.25 ppm, week 20
  Concentration of nitrite nitrogen: 40 ppm
[2]; 0.50 ppm, week 0
  Concentration of nitrite nitrogen: 7 ppm
[2]; 0.50 ppm, week 1
  Concentration of nitrite nitrogen: 2 ppm
[2]; 0.50 ppm, week 2
  Concentration of nitrite nitrogen: 6 ppm
[2]; 0.50 ppm, week 4
  Concentration of nitrite nitrogen: 2 ppm
[2]; 0.50 ppm, week 7
  Concentration of nitrite nitrogen: -4 ppm
[2]; 0.50 ppm, week 9
  Concentration of nitrite nitrogen: 2 ppm
[2]; 0.50 ppm, week 12
  Concentration of nitrite nitrogen: -11 ppm
[2]; 0.50 ppm, week 16
  Concentration of nitrite nitrogen: 7 ppm
[2]; 0.50 ppm, week 20
  Concentration of nitrite nitrogen: 7 ppm
